Among the test systems are SK-MEL-28 melanoma; A498 renal; TK-10 renal; MDA-N; HOP-62 NSCLC; UACC-62 melanoma; CAKI-1 renal; SNB-75 CNS; KM12 colon; SN12C renal; EKVX NSCLC; SNB-19 CNS; DU-145 prostate; NCI-H460 lung; OVCAR-4 ovarian; SF-295 CNS; HL-60(TB) leukemia.
Assay in all cases: DTP human tumour cell line panel, 48 h

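Growth conditions: 96-well plates. Treatment: test compound, 48 hours, 5 concentrations. Analysis: linear interpolation between bracketing concentrations; unreached endpoints set to highest concentration. At the TGI there is no net growth.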 *1 amine or outer side, *2 acyl side, *3 side chain or, on linkers, in order; H or OH if unused. Where a SMILES comes first, the peptide text is derived from it. [ ]: non-standard residue; d: D form. X33 = C=CCC(O[*:1])C(=O)[*:2]; NMeV = CN[CH](C(=O)O)C(C)C; NMeA = CN[CH](C)C(=O)O; βAla = NCCC(=O)O

Take `COC(=O)C1=C(CCCCO[Si](C)(C)C(C)(C)C)NC(=O)N2[C@@H](CCOCc3ccccc3)CC[C@H]12`: the TGI is greater than 100 µM with SK-MEL-28 melanoma; greater than 100 µM in the experiment with A498 renal; greater than 100 µM with TK-10 renal; 49.9 µM in the experiment with MDA-N; 65.2 µM in the experiment with HOP-62 NSCLC; greater than 100 µM in the experiment with UACC-62 melanoma. Further, the TGI with CAKI-1 renal is 92.9 µM; with SNB-75 CNS, greater than 100 µM; in the experiment with KM12 colon, 44.2 µM; with SN12C renal, 32.7 µM; with EKVX NSCLC, greater than 100 µM; with SNB-19 CNS it was greater than 100 µM. The TGI in the experiment on DU-145 prostate, in the experiment with NCI-H460 lung, in the experiment on OVCAR-4 ovarian and with SF-295 CNS was greater than 100 µM each time.

With `O=c1oc2c(ccc3ccccc32)cc1C1=CSC2=NCCN12`, the TGI in the experiment with SK-MEL-28 melanoma, in the experiment on TK-10 renal, with MDA-N, in the experiment with HOP-62 NSCLC, in the experiment with UACC-62 melanoma and in the experiment with CAKI-1 renal was greater than 100 µM throughout. Besides, the TGI in the experiment with SNB-75 CNS was greater than 100 µM; in the experiment with KM12 colon, greater than 100 µM; with SN12C renal, greater than 100 µM; in the experiment with EKVX NSCLC, greater than 100 µM; in the experiment on SNB-19 CNS, greater than 100 µM; in the experiment on DU-145 prostate, 75.1 µM. For the same compound, the TGI in the experiment with NCI-H460 lung, in the experiment on HL-60(TB) leukemia, in the experiment on OVCAR-4 ovarian and with SF-295 CNS was greater than 100 µM each time.

On to `C/C(=N\NC(=S)Nc1ccc(C)cc1)c1nc2ncccc2[nH]1`, for which the TGI with SK-MEL-28 melanoma was 18.4 µM; in the experiment with A498 renal it was 23.4 µM; in the experiment on TK-10 renal, 37 µM; in the experiment on MDA-N, 23.8 µM; in the experiment with HOP-62 NSCLC, 39.2 µM; with UACC-62 melanoma, 15 µM. Besides, the TGI in the experiment with CAKI-1 renal was greater than 100 µM; with SNB-75 CNS, 22.5 µM; with KM12 colon, 32 µM; in the experiment on SN12C renal, 30.8 µM; with EKVX NSCLC, 7.27 µM; in the experiment on SNB-19 CNS, greater than 100 µM. Further, the TGI with DU-145 prostate worked out at 13.6 µM; in the experiment on NCI-H460 lung, 13.6 µM; with OVCAR-4 ovarian, 16.7 µM.

Turning to `C=CCCCC1CCCNC1=S` (stereo not given), the TGI with SK-MEL-28 melanoma, in the experiment on A498 renal, with TK-10 renal, in the experiment with MDA-N, in the experiment on HOP-62 NSCLC and with UACC-62 melanoma was greater than 100 µM in each case. Further, the TGI in the experiment on CAKI-1 renal, in the experiment with SNB-75 CNS, in the experiment with KM12 colon, with SN12C renal, in the experiment with EKVX NSCLC and with SNB-19 CNS was greater than 100 µM throughout. Further, the TGI with DU-145 prostate, in the experiment with NCI-H460 lung, with OVCAR-4 ovarian and in the experiment with SF-295 CNS was greater than 100 µM each time.

As to `O=C(Cc1ccccc1)NNc1nc(NNC(=O)c2ccncc2)nc(Nc2cccc(Cl)c2)n1`, the TGI in the experiment with SK-MEL-28 melanoma, in the experiment with TK-10 renal, in the experiment on MDA-N, in the experiment on HOP-62 NSCLC, with UACC-62 melanoma and in the experiment with CAKI-1 renal was greater than 10 µM in each case. In addition, the TGI in the experiment with SNB-75 CNS, in the experiment on KM12 colon, with SN12C renal, with EKVX NSCLC, in the experiment with DU-145 prostate and in the experiment with NCI-H460 lung was greater than 10 µM in each case. Besides, the TGI with HL-60(TB) leukemia and in the experiment with OVCAR-4 ovarian was greater than 10 µM each time.

On to `CCOC(=O)C1(C/C=C\CBr)CCCCCCCCCCC1=O` (stereo not given), for which the TGI in the experiment with SK-MEL-28 melanoma turned out to be 30.7 µM; with A498 renal, 29.1 µM; with TK-10 renal it was 22.8 µM; in the experiment with MDA-N, 38.4 µM; with HOP-62 NSCLC, 34.7 µM; with UACC-62 melanoma, 31.9 µM. The TGI in the experiment on CAKI-1 renal was 27.2 µM; with SNB-75 CNS it was 26.9 µM; with KM12 colon, 28.8 µM; with SN12C renal, 28.4 µM; in the experiment with EKVX NSCLC, 34.4 µM; in the experiment on SNB-19 CNS, 36.6 µM. The TGI is 31.9 µM in the experiment on DU-145 prostate, 33 µM in the experiment on NCI-H460 lung, 27.4 µM in the experiment on OVCAR-4 ovarian and 31.7 µM in the experiment with SF-295 CNS.

Regarding `COc1cc2c(cc1OC)C(C)N(C)c1c-2c(OC(C)=O)cc2cc(OC)c(OC)cc12` (stereo not given), the TGI with SK-MEL-28 melanoma was greater than 60.1 µM; in the experiment with A498 renal, greater than 52.9 µM; in the experiment with TK-10 renal, greater than 100 µM; in the experiment with MDA-N, 38.3 µM; in the experiment on HOP-62 NSCLC, greater than 79.7 µM; in the experiment with UACC-62 melanoma, 39.3 µM. Besides, the TGI in the experiment on CAKI-1 renal was 49.5 µM; with SNB-75 CNS, greater than 79 µM; in the experiment with KM12 colon it was 34.1 µM; in the experiment on SN12C renal, greater than 46.2 µM; in the experiment with EKVX NSCLC it was 61.9 µM; with SNB-19 CNS, greater than 100 µM. Further, the TGI is 40.8 µM in the experiment with DU-145 prostate, 27.6 µM with NCI-H460 lung, greater than 45.4 µM in the experiment with OVCAR-4 ovarian and 53.4 µM in the experiment on SF-295 CNS.

For `C/C(=N\NC(=S)NC(C)(C)C)c1ccccn1`, the TGI with SK-MEL-28 melanoma was greater than 100 µM; with A498 renal, greater than 39.6 µM; in the experiment on TK-10 renal, greater than 100 µM; in the experiment on MDA-N, greater than 100 µM; in the experiment on HOP-62 NSCLC, greater than 100 µM; in the experiment with UACC-62 melanoma it was 25.7 µM. Moreover, the TGI with CAKI-1 renal is greater than 100 µM; in the experiment with SNB-75 CNS it was greater than 100 µM; in the experiment on KM12 colon it was greater than 100 µM; in the experiment with SN12C renal, greater than 88.5 µM; in the experiment on EKVX NSCLC, greater than 100 µM; in the experiment with SNB-19 CNS, greater than 100 µM. Further, the TGI with DU-145 prostate, with OVCAR-4 ovarian and in the experiment with SF-295 CNS was greater than 100 µM each time.

As to `C=CCC1OC(=O)CCNC(=O)C(C)N(C)C(=O)C(C(C)C)N(C)C(=O)C(C(C)CC)NC(=O)C2CCCN2C1=O` (stereo not given) (cyclo([X33]PI[NMeV][NMeA][βAla]); configuration not given here), the TGI in the experiment with SK-MEL-28 melanoma was greater than 100 µM; with TK-10 renal, greater than 100 µM; in the experiment on MDA-N, greater than 100 µM; in the experiment on HOP-62 NSCLC it was greater than 100 µM; with UACC-62 melanoma, 7.43 µM; in the experiment with CAKI-1 renal, greater than 100 µM. Further, the TGI in the experiment on SNB-75 CNS, in the experiment with KM12 colon, in the experiment with SN12C renal, in the experiment on EKVX NSCLC, in the experiment on SNB-19 CNS and in the experiment with DU-145 prostate was greater than 100 µM throughout. For the same compound, the TGI in the experiment on NCI-H460 lung is greater than 100 µM; with HL-60(TB) leukemia it was 8.47 µM; with OVCAR-4 ovarian it was greater than 100 µM; with SF-295 CNS it was greater than 100 µM.

A word on the TGI: it is the concentration at which net growth stops. A low value points to more potent growth arrest.

The values are drawn from PubChem BioAssay (NCI).
